Results as given in patent US11497752B2, “Compounds and uses thereof” (Foghorn Therapeutics Inc., priority 2018, dated 2022).

What was measured:
[1] = target: BRM (Homo sapiens, UniProt P51531); assay: ATPase catalytic activity of BRM (ADP-Glo in vitro biochemical assay)
[2] = target: BRG-1 (Homo sapiens, UniProt P51532); assay: ATPase catalytic activity of BRG-1 (ADP-Glo in vitro biochemical assay)
Sequence of BRG-1 (P51532 whole entry): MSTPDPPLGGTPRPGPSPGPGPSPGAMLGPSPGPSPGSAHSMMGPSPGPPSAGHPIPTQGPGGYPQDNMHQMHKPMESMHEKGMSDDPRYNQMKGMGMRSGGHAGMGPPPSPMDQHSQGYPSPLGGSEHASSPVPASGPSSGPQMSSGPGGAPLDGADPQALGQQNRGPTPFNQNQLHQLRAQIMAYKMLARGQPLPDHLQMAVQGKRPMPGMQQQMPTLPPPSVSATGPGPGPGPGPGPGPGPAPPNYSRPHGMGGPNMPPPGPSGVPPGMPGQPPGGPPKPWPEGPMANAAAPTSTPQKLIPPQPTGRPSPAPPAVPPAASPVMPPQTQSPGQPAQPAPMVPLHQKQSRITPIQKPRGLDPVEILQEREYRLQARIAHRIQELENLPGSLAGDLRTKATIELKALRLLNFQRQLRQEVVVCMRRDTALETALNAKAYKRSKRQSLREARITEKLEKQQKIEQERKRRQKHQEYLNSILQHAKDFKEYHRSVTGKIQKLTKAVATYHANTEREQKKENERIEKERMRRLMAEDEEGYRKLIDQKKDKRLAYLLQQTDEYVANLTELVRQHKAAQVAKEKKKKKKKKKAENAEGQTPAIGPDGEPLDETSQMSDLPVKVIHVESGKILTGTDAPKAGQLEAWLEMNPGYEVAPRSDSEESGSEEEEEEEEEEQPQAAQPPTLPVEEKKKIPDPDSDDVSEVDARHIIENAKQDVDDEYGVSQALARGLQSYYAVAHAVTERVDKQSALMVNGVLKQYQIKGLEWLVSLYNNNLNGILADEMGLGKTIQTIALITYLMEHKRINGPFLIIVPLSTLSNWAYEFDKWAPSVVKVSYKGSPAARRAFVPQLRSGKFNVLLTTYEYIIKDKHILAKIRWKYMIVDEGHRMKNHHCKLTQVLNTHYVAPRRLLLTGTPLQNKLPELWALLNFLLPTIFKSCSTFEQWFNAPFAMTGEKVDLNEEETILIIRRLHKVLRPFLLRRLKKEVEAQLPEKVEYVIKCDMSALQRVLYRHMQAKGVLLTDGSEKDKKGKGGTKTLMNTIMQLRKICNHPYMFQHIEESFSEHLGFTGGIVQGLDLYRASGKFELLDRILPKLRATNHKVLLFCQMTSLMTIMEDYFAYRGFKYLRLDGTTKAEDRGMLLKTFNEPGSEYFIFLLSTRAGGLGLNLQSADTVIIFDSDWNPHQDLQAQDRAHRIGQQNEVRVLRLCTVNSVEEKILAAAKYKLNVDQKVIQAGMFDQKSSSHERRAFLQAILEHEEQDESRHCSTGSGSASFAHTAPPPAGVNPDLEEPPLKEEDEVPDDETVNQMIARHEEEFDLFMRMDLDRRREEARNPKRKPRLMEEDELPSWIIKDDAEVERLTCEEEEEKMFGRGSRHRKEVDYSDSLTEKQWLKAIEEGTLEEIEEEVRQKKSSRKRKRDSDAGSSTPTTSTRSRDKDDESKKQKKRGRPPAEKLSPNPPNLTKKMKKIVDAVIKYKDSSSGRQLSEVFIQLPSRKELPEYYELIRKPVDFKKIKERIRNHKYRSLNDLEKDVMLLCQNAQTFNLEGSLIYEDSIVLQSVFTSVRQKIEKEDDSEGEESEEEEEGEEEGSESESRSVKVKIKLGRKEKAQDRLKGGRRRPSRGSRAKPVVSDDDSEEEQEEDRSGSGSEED

Sequence of BRM (P51531 whole entry): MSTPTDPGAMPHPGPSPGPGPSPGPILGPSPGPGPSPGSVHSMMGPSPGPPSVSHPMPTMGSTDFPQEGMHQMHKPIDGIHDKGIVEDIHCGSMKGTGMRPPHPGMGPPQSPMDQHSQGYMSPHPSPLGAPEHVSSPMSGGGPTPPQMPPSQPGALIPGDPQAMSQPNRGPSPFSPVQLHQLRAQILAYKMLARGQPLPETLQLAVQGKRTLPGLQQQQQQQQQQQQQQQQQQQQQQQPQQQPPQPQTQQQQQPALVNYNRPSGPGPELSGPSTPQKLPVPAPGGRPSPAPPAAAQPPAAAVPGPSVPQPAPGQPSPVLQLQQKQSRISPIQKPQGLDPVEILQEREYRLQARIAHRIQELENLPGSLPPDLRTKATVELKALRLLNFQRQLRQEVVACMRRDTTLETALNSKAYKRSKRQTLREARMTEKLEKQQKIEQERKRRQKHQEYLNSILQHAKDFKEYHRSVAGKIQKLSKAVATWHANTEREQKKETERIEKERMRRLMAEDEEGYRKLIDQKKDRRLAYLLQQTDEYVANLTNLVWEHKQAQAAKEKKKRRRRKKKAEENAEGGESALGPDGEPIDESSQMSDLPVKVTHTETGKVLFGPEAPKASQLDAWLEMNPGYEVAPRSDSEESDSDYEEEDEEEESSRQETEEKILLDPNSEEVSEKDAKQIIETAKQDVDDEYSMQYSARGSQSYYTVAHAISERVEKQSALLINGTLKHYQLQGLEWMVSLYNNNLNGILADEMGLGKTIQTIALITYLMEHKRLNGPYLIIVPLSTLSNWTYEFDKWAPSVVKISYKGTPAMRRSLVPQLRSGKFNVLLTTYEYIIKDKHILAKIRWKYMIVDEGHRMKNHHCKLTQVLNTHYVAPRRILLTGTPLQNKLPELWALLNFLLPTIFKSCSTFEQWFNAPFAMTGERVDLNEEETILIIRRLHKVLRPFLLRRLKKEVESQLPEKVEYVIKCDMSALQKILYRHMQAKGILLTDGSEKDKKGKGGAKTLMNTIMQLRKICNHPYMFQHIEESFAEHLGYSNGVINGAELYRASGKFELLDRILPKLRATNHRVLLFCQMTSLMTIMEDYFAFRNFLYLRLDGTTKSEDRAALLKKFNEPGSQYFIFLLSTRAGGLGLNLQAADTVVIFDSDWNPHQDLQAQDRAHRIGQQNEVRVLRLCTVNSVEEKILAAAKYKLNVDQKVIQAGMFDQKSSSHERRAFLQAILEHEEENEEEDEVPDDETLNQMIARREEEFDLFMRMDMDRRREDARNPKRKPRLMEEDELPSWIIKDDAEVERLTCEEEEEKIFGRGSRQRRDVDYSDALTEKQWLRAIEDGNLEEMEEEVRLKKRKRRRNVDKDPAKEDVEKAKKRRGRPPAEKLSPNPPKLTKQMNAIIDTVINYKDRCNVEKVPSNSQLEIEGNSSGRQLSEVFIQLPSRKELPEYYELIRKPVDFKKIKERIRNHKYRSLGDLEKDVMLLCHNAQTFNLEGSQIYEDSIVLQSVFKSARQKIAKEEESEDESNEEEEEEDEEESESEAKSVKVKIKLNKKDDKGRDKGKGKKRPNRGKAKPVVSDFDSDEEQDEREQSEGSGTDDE

Row | SMILES | IC50 [1] | BRM Max % Inhibition ([1]; Table 6) | IC50 [2] | BRG1 Max % Inhibition ([2]; Table 6) | BRM Max % Inhibition ([1]; Table 5) | BRG1 Max % Inhibition ([2]; Table 5)
1 | Cc1ccc(-c2csc(NC(=O)CNC(=O)c3ccc(N)cc3)n2)cc1-c1ccncc1 [Compound 188, 4-amino-N-[2-[[4-[4-methyl-3-(4-pyridyl)phenyl]thiazol-2-yl]amino]-2-oxo-ethyl]benzamide] | < 0.1 µM | >95% | < 0.1 µM | >80% |  | 
2 | CSCC[C@H](NC(=O)c1cccc(S(=O)(=O)C(C)C)c1)C(=O)Nc1nc(-c2ccccc2)cs1 [Compound 14, (S)-3-(isopropylsulfonyl)-N-(4-(methylthio)-1-oxo-1-((4-phenylthiazol-2-yl)amino)butan-2-yl)benzamide] | 1 to 10 µM |  | > 10 µM |  | >80% | >60%
3 | O=C(CNC(=O)c1ccc2cncn2c1)Nc1nc(-c2cccc(-c3ccncc3)c2)cs1 [Compound 101, N-(2-oxo-2-((4-(3-(pyridin-4-yl)phenyl)thiazol-2-yl)amino)ethyl)imidazo[1,5-a]pyridine-6-carboxamide] | 0.1 to 1 µM | >95% | 0.1 to 1 µM | >95% |  | 
4 | O=C(N[C@@H](CCc1ccccc1)C(=O)Nc1nc(-c2ccccc2)cs1)c1ccccc1 [Compound 49, N-[(1S)-3-phenyl-1-[(4-phenylthiazol-2-yl)carbamoyl]propyl]benzamide] | 1 to 10 µM |  | 1 to 10 µM |  |  | 
5 | CN(C)C(=O)c1cccc(-c2cccc(-c3csc(NC(=O)CNC(=O)c4ccc(N)cc4)n3)c2)c1 [Compound 131, 3′-(2-(2-(4-aminobenzamido)acetamido)thiazol-4-yl)-N,N-dimethyl-[1,1′-biphenyl]-3-carboxamide] | < 0.1 µM | >95% | < 0.1 µM | >95% |  | 
6 | Cc1cc(-c2cccc(-c3csc(NC(=O)CNC(=O)c4ccc(N)cc4)n3)c2)ccn1 [Compound 195, 4-amino-N-[2-[[4-[3-(2-methyl-4-pyridyl)phenyl]thiazol-2-yl]amino]-2-oxo-ethyl]benzamide] | < 0.1 µM | >95% | < 0.1 µM | >95% |  | 
7 | O=C(CNC(=O)c1ccc(N2CC(O)C2)cc1)Nc1nc(-c2cccc(-c3ccncc3)c2)cs1 [Compound 103, 4-(3-hydroxyazetidin-1-yl)-N-(2-oxo-2-((4-(3-(pyridin-4-yl)\phenyl)thiazol-2-yl)amino)ethyl)benzamide] | 0.1 to 1 µM | >70% | 1 to 10 µM | >80% |  | 
8 | CN(C)Cc1ccc(-c2cccc(-c3csc(NC(=O)CNC(=O)c4ccc(N)cc4)n3)c2)cc1 [Compound 145, 4-amino-N-(2-((4-(4′-((dimethylamino)methyl)-[1,1′-biphenyl]-3-yl)thiazol-2-yl)amino)-2-oxoethyl)benzamide] | 0.1 to 1 µM | >90% | 0.1 to 1 µM | >90% |  | 
9 | Nc1ccc(C(=O)NCC(=O)Nc2nc(-c3ccc4c(c3)CCO4)cs2)cc1 [Compound 111, 4-amino-N-(2-((4-(2,3-dihydrobenzofuran-5-yl)thiazol-2-yl)amino)-2-oxoethyl)benzamide] | 0.1 to 1 µM | >90% | 0.1 to 1 µM | >90% |  | 
10 | O=C(CNC(=O)c1ccc2c(c1)CCCN2)Nc1nc(-c2cccc(-c3ccncc3)c2)cs1 [Compound 99, N-(2-oxo-2-((4-(3-(pyridin-4-yl)phenyl)thiazol-2-yl)amino)ethyl)-1,2,3,4-tetrahydroquinoline-6-carboxamide] | < 0.1 µM | >90% | < 0.1 µM | >95% |  | 
11 | CSCC[C@H](NC(=O)c1ccccc1O)C(=O)Nc1nc(-c2ccccc2)cs1 [Compound 69, 2-hydroxy-N-[(1S)-3-methylsulfanyl-1-[(4-phenylthiazol-2-yl)carbamoyl]propyl]benzamide] | > 10 µM |  | > 10 µM |  | >60% | >60%
12 | Nc1ccc(C(=O)NCC(=O)Nc2nc(-c3cccc(-c4ccncc4)c3)cs2)nc1 [Compound 184, 5-amino-N-(2-oxo-2-((4-(3-(pyridin-4-yl)phenyl)thiazol-2-yl)amino)ethyl)picolinamide] | < 0.1 µM | >80% | < 0.1 µM | >70% |  | 
13 | CSCC[C@H](NC(=O)c1cc2ccccc2s1)C(=O)Nc1nc(-c2ccccc2)cs1 [Compound 71, (S)—N-(4-(methylthio)-1-oxo-1-((4-phenylthiazol-2-yl)amino)butan-2-yl)benzo[b]thiophene-2-carboxamide] | 1 to 10 µM |  | > 10 µM |  | >60% | >50%
14 | CNC(=O)C1(c2cc(-c3cccc(-c4csc(NC(=O)CNC(=O)c5ccc(N)cc5)n4)c3)ccn2)CC1 [Compound 223, 4-amino-N-[2-[[4-[3-[2-[1-(methylcarbamoyl)cyclopropyl]-4-pyridyl]phenyl]thiazol-2-yl]amino]-2-oxo-ethyl]benzamide] | < 0.1 µM | >95% | < 0.1 µM | >90% |  | 
15 | CSCC[C@H](NC(=O)c1ccc(N)cc1)C(=O)Nc1nc(-c2ccc(CNC(C)=O)cc2)cs1 [Compound 121, (S)-N-(1-((4-(4-(acetamidomethyl)phenyl)thiazol-2-yl)amino)-4-(methylthio)-1-oxobutan-2-yl)-4-aminobenzamide] | 0.1 to 1 µM | >95% | 0.1 to 1 µM | >95% |  | 
16 | Nc1ccc(C(=O)NCC(=O)Nc2nc(-c3cccc(-c4cc[n+]([O-])cc4)c3)cs2)cc1 [Compound 156, 4-(3-(2-(2-(4-aminobenzamido)acetamido)thiazol-4-yl)phenyl)pyridine 1-oxide] | 0.1 to 1 µM | >95% | 0.1 to 1 µM | >90% |  | 
17 | Nc1ccc(C(=O)NCC(=O)Nc2nc(-c3ccnc(-c4ccncc4)c3)cs2)cc1 [Compound 217, 4-amino-N-[2-oxo-2-[[4-[2-(4-pyridyl)-4-pyridyl]thiazol-2-yl]amino]ethyl]benzamide] | < 0.1 µM | >90% | < 0.1 µM | >90% |  | 
18 | CSCC[C@H](NC(=O)c1ccc(C)c(S(C)(=O)=O)c1)C(=O)Nc1nc(-c2ccccc2)cs1 [Compound 2, 4-methyl-N-[(1S)-3-methylsulfanyl-1-[(4-phenylthiazol-2-yl)carbamoyl]propyl]-3-methylsulfonyl-benzamide] | < 1 µM |  | 1 to 10 µM |  | >95% | >95%
19 | CN(C)CCNc1cc(-c2cccc(-c3csc(NC(=O)CNC(=O)c4ccc(N)cc4)n3)c2)ccn1 [Compound 189, 4-amino-N-[2-[[4-[3-[2-[2-(dimethylamino)ethylamino]-4-pyridyl]phenyl]thiazol-2-yl]amino]-2-oxo-ethyl]benzamide] | 0.1 to 1 µM | >90% | 0.1 to 1 µM | >90% |  | 
20 | CSCC[C@H](NC(=O)c1cccc(O)c1)C(=O)Nc1nc(-c2ccccc2)cs1 [Compound 59, (S)-3-hydroxy-N-(4-(methylthio)-1-oxo-1-((4-phenylthiazol-2-yl)amino)butan-2-yl)benzamide] | > 10 µM |  | > 10 µM |  | >90% | >90%
21 | CN(C)CCn1ccc2ccc(-c3csc(NC(=O)CNC(=O)c4ccc(N)cc4)n3)cc2c1=O [Compound 167, 4-amino-N-(2-((4-(2-(2-(dimethylamino)ethyl)-1-oxo-1,2-dihydroisoquinolin-7-yl)thiazol-2-yl)amino)-2-oxoethyl)benzamide] | 0.1 to 1 µM | >95% | 0.1 to 1 µM | >95% |  | 
22 | Nc1ccc(C(=O)NCC(=O)Nc2nc(-c3cccc(-c4ccncn4)c3)cs2)cc1 [Compound 227, 4-amino-N-[2-oxo-2-[[4-(3-pyrimidin-4-ylphenyl)thiazol-2-yl]amino]ethyl]benzamide] | < 0.1 µM | >95% | < 0.1 µM | >95% |  | 
23 | CNc1ccc(C(=O)NCC(=O)Nc2nc(-c3cccc(-c4ccncc4)c3)cs2)cc1 [Compound 126, 4-(methylamino)-N-(2-oxo-2-((4-(3-(pyridin-4-yl)phenyl)thiazol-2-yl)amino)ethyl)benzamide] | < 0.1 µM | >80% | < 0.1 µM | >80% |  | 
24 | COC(=O)C(C)(C)n1ccc(-c2cccc(-c3csc(NC(=O)CNC(=O)c4ccc(N)cc4)n3)c2)n1 [Compound 209, methyl 2-[3-[3-[2-[[2-[(4-aminobenzoyl)amino]acetyl]amino]thiazol-4-yl]phenyl]pyrazol-1-yl]-2-methyl-propanoate] | < 0.1 µM | >95% | < 0.1 µM | >95% |  | 
25 | CN(C)CCN(C)c1cc(-c2cccc(-c3csc(NC(=O)CNC(=O)c4ccc(N)cc4)n3)c2)ccn1 [Compound 191, 4-amino-N-[2-[[4-[3-[2-[2-(dimethylamino)ethyl-methyl-amino]-4-pyridyl]phenyl]thiazol-2-yl]amino]-2-oxo-ethyl]benzamide] | < 0.1 µM | >95% | 0.1 to 1 µM | >95% |  | 
26 | CN(C)c1ccc(C(=O)NCC(=O)Nc2nc(-c3cccc(-c4ccncc4)c3)cs2)cc1 [Compound 132, 4-(dimethylamino)-N-(2-oxo-2-((4-(3-(pyridin-4-yl)phenyl)thiazol-2-yl)amino)ethyl)benzamide] | < 0.1 µM | >80% | < 0.1 µM | >70% |  | 
